Tests used:
Format in all cases: biochemical
[1] = target: T1, MMP-1FL (full-length interstitial collagenase) (Homo sapiens, UniProt P03956); assay: Thiopeptolide hydrolysis inhibition assay, MMP-1FL; details: thiopeptolide substrate, HEPES pH 7.0, 22° C.
T1 sequence (P03956 100-469): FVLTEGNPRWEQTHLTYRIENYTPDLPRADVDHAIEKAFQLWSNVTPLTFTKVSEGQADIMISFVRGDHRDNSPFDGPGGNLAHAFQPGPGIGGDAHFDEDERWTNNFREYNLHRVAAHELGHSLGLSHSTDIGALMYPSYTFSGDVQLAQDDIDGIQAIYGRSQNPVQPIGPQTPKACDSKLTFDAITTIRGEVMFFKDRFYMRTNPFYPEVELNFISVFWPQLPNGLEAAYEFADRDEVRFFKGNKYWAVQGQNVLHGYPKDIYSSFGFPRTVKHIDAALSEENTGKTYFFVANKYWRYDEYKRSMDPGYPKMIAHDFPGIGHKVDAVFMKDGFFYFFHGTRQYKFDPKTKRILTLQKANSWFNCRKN
Excerpt: (§1) The assays measure the amount by which a test compound reduces the hydrolysis of a thiopeptolide substrate catalyzed by a matrix metalloproteinase enzyme. Such assays are described in detail by Ye et al., Biochemistry, 1992;31(45):11231-11235, hereby incorporated herein by reference.
(§2) Thiopeptolide substrates show virtually no decomposition or hydrolysis at or below neutral pH in the absence of a matrix metalloproteinase enzyme. A typical thiopeptolide substrate commonly utilized for assays is Ac-Pro-Leu-Gly-thioester-Leu-Leu-Gly-OEt. A 100 μL assay mixture will contain 50 mM of N-2-hydroxyethylpiperazine-N′-2-ethanesulfonic acid buffer (“HEPES”) at pH 7.0, 10 mM CaCl2, 100 μM thiopeptolide substrate, and 1 mM 5,5′-dithio-bis-(2-nitrobenzoic acid) (DTNB). The thiopeptolide substrate concentration may be varied from, for example, 10 to 800 μM, in order to obtain Km and Kcat values. The change in absorbance at 405 nm is monitored on a Thermo Max microplate reader (Molecular Devices, Menlo Park, Calif.) at room temperature (22° C.). The calculation of the amount of hydrolysis of the thiopeptolide substrate is based on E412=13600 M^−1 cm^−1 for the DTNB-derived product 3-carboxy-4-nitrothiophenoxide. Assays are carried out with and without matrix metalloproteinase inhibitor compounds, and the amount of hydrolysis is compared for a determination of inhibitory activity of the test compounds.
(§3) Several representative compounds have been evaluated for their ability to inhibit various matrix metalloproteinase enzymes. In Table 1, MMP-1FL refers to full-length interstitial collagenase; MMP-2FL refers to full-length Gelatinase A; MMP-3CD refers to the catalytic domain of stromelysin-1; MMP-7FL refers to full-length matrilysin; MMP-9FL refers to full-length Gelatinase B; MMP-13CD refers to the catalytic domain of collagenase 3; and MMP-14CD refers to the catalytic domain of MMP-14. Test compounds were evaluated at various concentrations, in order to determine their respective IC50 values, the micromolar concentration of compound required to cause a 50% inhibition of the catalytic activity of the respective enzyme.

[2] = target: T2, MMP-2FL (full-length Gelatinase A) (Homo sapiens, UniProt P08253); assay: Thiopeptolide hydrolysis inhibition assay, MMP-2FL; details: thiopeptolide substrate, HEPES pH 7.0, 22° C.
T2 sequence (P08253 110-660): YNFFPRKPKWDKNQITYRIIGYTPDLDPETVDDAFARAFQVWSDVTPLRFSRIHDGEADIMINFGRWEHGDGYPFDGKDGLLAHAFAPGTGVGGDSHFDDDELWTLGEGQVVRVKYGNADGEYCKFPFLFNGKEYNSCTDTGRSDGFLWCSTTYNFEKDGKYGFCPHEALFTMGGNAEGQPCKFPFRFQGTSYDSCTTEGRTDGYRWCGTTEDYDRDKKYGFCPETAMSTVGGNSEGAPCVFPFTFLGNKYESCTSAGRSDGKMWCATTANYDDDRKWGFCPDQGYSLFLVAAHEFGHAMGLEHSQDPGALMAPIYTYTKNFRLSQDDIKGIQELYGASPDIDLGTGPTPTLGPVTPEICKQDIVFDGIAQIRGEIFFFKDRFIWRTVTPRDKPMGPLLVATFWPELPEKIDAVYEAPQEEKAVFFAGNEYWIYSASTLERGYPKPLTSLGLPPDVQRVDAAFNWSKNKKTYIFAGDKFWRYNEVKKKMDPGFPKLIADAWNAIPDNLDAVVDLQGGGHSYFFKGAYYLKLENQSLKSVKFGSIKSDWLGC
Excerpt: as §1, §2, §3

[3] = target: MMP-3CD (catalytic domain of stromelysin-1) (Homo sapiens, UniProt P08254); assay: Thiopeptolide hydrolysis inhibition assay, MMP-3CD; details: thiopeptolide substrate, MES buffer pH 6.0
Excerpt: as §1, §2
It should be appreciated that the assay buffer used with MMP-3CD is 50 mM of N-morpholinoethanesulfonate (“MES”) at pH 6.0 rather than the HEPES buffer at pH 7.0 described above.
as §3

[4] = target: T3, MMP-7FL (full-length matrilysin) (Homo sapiens, UniProt P09237); assay: Thiopeptolide hydrolysis inhibition assay, MMP-7FL; details: thiopeptolide substrate, HEPES pH 7.0, 22° C.
T3 sequence (P09237 95-267): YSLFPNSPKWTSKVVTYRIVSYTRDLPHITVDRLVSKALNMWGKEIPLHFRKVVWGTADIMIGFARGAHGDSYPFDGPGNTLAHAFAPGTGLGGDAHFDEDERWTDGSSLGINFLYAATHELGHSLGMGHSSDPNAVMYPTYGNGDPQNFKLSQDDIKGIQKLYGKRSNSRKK
Excerpt: as §1, §2, §3

[5] = target: MMP-9FL (full-length Gelatinase B) (Homo sapiens, UniProt P14780); assay: Thiopeptolide hydrolysis inhibition assay, MMP-9FL; details: thiopeptolide substrate, HEPES pH 7.0, 22° C.
Excerpt: as §1, §2, §3

[6] = target: MMP-13CD (catalytic domain of collagenase 3) (Homo sapiens, UniProt P45452); assay: Thiopeptolide hydrolysis inhibition assay, MMP-13CD; details: thiopeptolide substrate, HEPES pH 7.0, 22° C.
Excerpt: as §1, §2, §3

[7] = target: MMP-14CD (catalytic domain of MMP-14) (Homo sapiens, UniProt P50281); assay: Thiopeptolide hydrolysis inhibition assay, MMP-14CD; details: thiopeptolide substrate, HEPES pH 7.0, 22° C.
Excerpt: as §1, §2, §3

MMP-3CD (catalytic domain of stromelysin-1), sequence (P08254 100-272 limits assumed): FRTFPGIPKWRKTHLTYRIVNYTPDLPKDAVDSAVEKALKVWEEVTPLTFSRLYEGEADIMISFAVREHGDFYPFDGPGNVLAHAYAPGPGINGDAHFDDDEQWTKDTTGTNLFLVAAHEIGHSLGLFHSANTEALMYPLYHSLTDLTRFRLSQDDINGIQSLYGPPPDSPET
MMP-9FL (full-length Gelatinase B), sequence (P14780 94-707, species assumed): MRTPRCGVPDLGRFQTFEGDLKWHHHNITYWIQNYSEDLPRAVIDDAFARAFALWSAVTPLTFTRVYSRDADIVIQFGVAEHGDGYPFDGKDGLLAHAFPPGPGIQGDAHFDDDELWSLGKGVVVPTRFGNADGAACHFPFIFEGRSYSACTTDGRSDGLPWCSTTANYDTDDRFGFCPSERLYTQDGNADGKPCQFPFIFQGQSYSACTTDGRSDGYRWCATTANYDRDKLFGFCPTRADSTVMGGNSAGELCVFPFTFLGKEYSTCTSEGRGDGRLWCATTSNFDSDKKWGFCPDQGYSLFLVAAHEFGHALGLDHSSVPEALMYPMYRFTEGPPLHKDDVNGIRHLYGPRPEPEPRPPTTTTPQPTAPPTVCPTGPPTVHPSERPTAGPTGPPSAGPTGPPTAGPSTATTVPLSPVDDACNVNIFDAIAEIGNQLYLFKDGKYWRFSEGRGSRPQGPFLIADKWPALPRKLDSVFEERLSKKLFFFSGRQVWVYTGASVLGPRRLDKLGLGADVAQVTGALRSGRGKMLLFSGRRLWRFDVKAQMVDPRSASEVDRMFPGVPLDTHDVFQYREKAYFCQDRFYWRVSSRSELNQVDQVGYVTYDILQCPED

IC50 [1] | IC50 [2] | IC50 [3] | IC50 [4] | IC50 [5] | IC50 [6] | IC50 [7] | SMILES
17 nM | 15 nM | 9 nM | 28 nM | 260 nM | 3 nM | 40 nM | CC1(C)SCCN(S(=O)(=O)c2ccc3oc4ccccc4c3c2)[C@H]1C(=O)NO [Example 8, (S)-4-(Dibenzofuran-2-sulfonyl)-2,2-dimethyl-thiomorpholine-3-carboxylic Acid Hydroxyamide]
1420 nM | 74 nM | 41 nM | 55000 nM | 22500 nM | 970 nM | 64 nM | CC1(C)SCCN(S(=O)(=O)c2ccc3c(c2)oc2ccccc23)[C@H]1C(=O)O [Example 1, (S)-4-(Dibenzofuran-3-sulfonyl)-2,2-dimethyl-thiomorpholine-3-carboxylic Acid]
100000 nM | 5200 nM | 94 nM | 3500 nM | 69000 nM | 4600 nM | 20000 nM | COC(=O)c1ccc2c(c1)oc1ccc(S(=O)(=O)N3CCSC(C)(C)[C@@H]3C(=O)O)cc12 [Example 11, (S)-4-(7-Methoxycarbonyl-dibenzofuran-2-sulfonyl)-2,2-dimethyl-thiomorpholine-3-carboxylic Acid]
42 nM | 7 nM | 4 nM | 31 nM | 66 nM | 2 nM | 12 nM | CC1(C)SCCN(S(=O)(=O)c2ccc3oc4cc(Br)ccc4c3c2)[C@H]1C(=O)NO [Example 10, (S)-4-(7-Bromo-dibenzofuran-2-sulfonyl)-2,2-dimethyl-thiomorpholine-3-carboxylic Acid Hydroxyamide]
12 nM | 22 nM | 5 nM | 38 nM | 190 nM | 2 nM | 24 nM | CC1(C)SCCN(S(=O)(=O)c2ccc3oc4cc([N+](=O)[O-])ccc4c3c2)[C@H]1C(=O)NO [Example 14, (S)-2,2-Dimethyl-4-(7-nitro-dibenzofuran-2-sulfonyl)-thiomorpholine-3-carboxylic Acid Hydroxyamide]
70000 nM | 4000 nM | 20 nM | 1200 nM | 65000 nM | 920 nM | 3800 nM | CC1(C)SCCN(S(=O)(=O)c2ccc3oc4cc(Br)ccc4c3c2)[C@H]1C(=O)O [Example 9, (S)-4-(7-Bromo-dibenzofuran-2-sulfonyl)-2,2-dimethyl-thiomorpholine-3-carboxylic Acid]
59000 nM | 3900 nM | 210 nM | 16000 nM | 100000 nM | 11000 nM | 4000 nM | CC1(C)SCCN(S(=O)(=O)c2ccc3oc4ccccc4c3c2)[C@H]1C(=O)O [Example 7, (S)-4-(Dibenzofuran-2-sulfonyl)-2,2-dimethyl-thiomorpholine-3-carboxylic Acid]
60000 nM | 33000 nM | 1000 nM | 1600 nM | 100000 nM | 2700 nM | 15000 nM | CC1(C)SCCN(S(=O)(=O)c2ccc3oc4cc([N+](=O)[O-])ccc4c3c2)[C@H]1C(=O)O [Example 13, (S)-2,2-Dimethyl-4-(7-nitro-dibenzofuran-2-sulfonyl)-thiomorpholine-3-carboxylic Acid]

The remaining lines, values behind:

SMILES | IC50 [1] | IC50 [2] | IC50 [3] | IC50 [4] | IC50 [5] | IC50 [6] | IC50 [7]
CC1(C)[C@H](C(=O)NO)N(S(=O)(=O)c2ccc3oc4ccccc4c3c2)CCS1(=O)=O [Example 15, (S)-4-(Dibenzofuran-2-sulfonyl)-2,2-dimethyl-1,1-dioxo-thiomorpholine-3-carboxylic Acid Hydroxyamide] | 33 nM | 250 nM | 8 nM | 32 nM | 1800 nM | 13 nM | 98 nM
CC1(C)SCCN(S(=O)(=O)c2ccc3c(c2)Cc2ccccc2-3)[C@H]1C(=O)O [Example 5, (S)-4-(9H-Fluorene-2-sulfonyl)-2,2-dimethyl-thiomorpholine-3-carboxylic Acid] | 23000 nM | 500 nM | 130 nM | 100000 nM | 100000 nM | 5100 nM | 840 nM
CC1(C)SCCN(S(=O)(=O)c2ccc3c(c2)oc2ccccc23)[C@H]1C(=O)NO [Example 2, (S)-4-(Dibenzofuran-3-sulfonyl)-2,2-dimethyl-thiomorpholine-3-carboxylic Acid Hydroxyamide] | 13 nM | 15 nM | 11 nM | 200 nM | 210 nM | 4 nM | 26 nM
CC1(C)SCN(S(=O)(=O)c2ccc3c(c2)oc2ccccc23)[C@@H]1C(=O)NO [Example 4, R-3-(Dibenzofuran-3-sulfonyl)-5,5-dimethyl-thiazolidine-4-carboxylic Acid Hydroxyamide] | 6900 nM | 3900 nM | 3200 nM | 59000 nM | 18000 nM | 1400 nM | 11000 nM
CC1(C)SCCN(S(=O)(=O)c2ccc3c(c2)Cc2ccccc2-3)[C@H]1C(=O)NO [Example 6, (S)-4-(9H-Fluorene-2-sulfonyl)-2,2-dimethyl-thiomorpholine-3-carboxylic Acid Hydroxyamide] | 140 nM | 24 nM | 8 nM | 880 nM | 550 nM | 4 nM | 63 nM
CC1(C)SCN(S(=O)(=O)c2ccc3c(c2)oc2ccccc23)[C@@H]1C(=O)O [Example 3, R-3-(Dibenzofuran-3-sulfonyl)-5,5-dimethyl-thiazolidine-4-carboxylic Acid] | 100000 nM | 9500 nM | 2500 nM | 100000 nM | 150000 nM | 23000 nM | 10000 nM
COC(=O)c1ccc2c(c1)oc1ccc(S(=O)(=O)N3CCSC(C)(C)[C@@H]3C(=O)NO)cc12 [Example 12, (S)-4-(7-Methoxycarbonyl-dibenzofuran-2-sulfonyl)-2,2-dimethyl-thiomorpholine-3-carboxylic Acid Hydroxyamide] | 150 nM | 17 nM | 6 nM | 29 nM | 47 nM | 5 nM | 95 nM
